Earlier results on three compounds are cited in patent publication US20100278915A1, “COMPOSITIONS COMPRISING AN ANTIHISTAMINE, A[…] DE[…] EXTENDED RELEASE FORMULATIONS” (Atley Pharmaceuticals, Inc., priority 2009, published 2010).

Where a name gives a salt, the structure may show the parent alone.

For data set [1] the following is noted: in vivo.
The conditions of data set [2]: after a single oral dose.
For data set [3] the following is noted: within 24 hours of dosing.

For `CN(C)CCC(c1ccc(Cl)cc1)c1ccccn1` (stereo not shown) [Chlorpheniramine, Chlorpheniramine maleate], in data set [1], the “monodesmethyl and didesmethyl compounds excreted in the urine” value is “up to 26%”; the “renal elimination, share of total excretion” value is reported as “approximately 50%”.
On to `COc1ccc2c3c1O[C@H]1C(=O)CC[C@H]4[C@@H](C2)N(C)CC[C@]314` [Hydrocodone, hydrocodone], for which the “share of total excretion in the first 24 hours” value in data set [2] is given as “About 70%”.
As to `CN[C@@H](C)[C@@H](O)c1ccccc1` [Pseudoephedrine, pseudoephedrine], the “dose excreted unchanged in urine” value in data set [3] was “up to 90%”.
